Here are results for 44 compounds from patent US7767665B2, “1,3-benzothiazinone derivatives and use thereof” (Takeda Pharmaceutical Company Limited, priority 2001, dated 2010).

Compound `CCCCCSc1cccc(-c2nc(=O)c3ccccc3s2)n1` [Example 129, 2-[6-(Pentylthio)-2-pyridyl]-4H-1,3-benzothiazine-4-one] had a melting point of 105 to 105.1 °C. For `CC(C)CCSc1cccc(-c2nc(=O)c3ccccc3s2)n1` [Example 130, 2-[6-(Isopentylthio)-2-pyridyl]-4H-1,3-benzothiazine-4-one] the value was 103.4 to 105.1 °C. As to `O=c1nc(-c2cccc(SCCc3ccccc3)n2)sc2ccccc12` [Example 131, 2-[6-(2-Phenethylthio)-2-pyridyl]-4H-1,3-benzothiazine-4-one], the melting point is 167.1 to 168.4 °C.

As to `O=C(O)c1ccc2c(=O)nc(-c3ccccn3)sc2c1` [Example 135, 4-Oxo-2-(2-pyridyl)-4H-1,3-benzothiazine-7-carboxylic acid], the melting point was in the range of 294.7 to 295.1 °C. In the case of `Cc1cccc(-c2nc(=O)c3ccccc3s2)n1` [Example 136, 2-(6-Methyl-2-pyridyl)-4H-1,3-benzothiazine-4-one], the melting point fell in the range of 169.8 to 170.3 °C. With `O=c1nc(-c2cc(-c3ccccc3)ccn2)sc2ccccc12` [Example 137, 2-(4-Phenyl-2-pyridyl)-4H-1,3-benzothiazine-4-one] the figure was 164.4 to 164.7 °C; with `Cc1ccnc(-c2nc(=O)c3ccccc3s2)c1` [Example 138, 2-(4-Methyl-2-pyridyl)-4H-1,3-benzothiazine-4-one], 199.7 to 199.9 °C; with `O=c1nc(-c2ccc3c(n2)CCCC3)sc2ccccc12` [Example 139, 2-(5,6,7,8-Tetrahydro-2-quinolyl)-4H-1,3-benzothiazine-4-one], 232.3 to 232.8 °C. `CCc1cccc(-c2nc(=O)c3ccccc3s2)n1` [Example 140, 2-(6-Ethyl-2-pyridyl)-4H-1,3-benzothiazine-4-one] showed a melting point of 150.5 to 150.9 °C. The compound `Nc1ccnc(-c2nc(=O)c3ccccc3s2)c1` [Example 142, 2-(4-Amino-2-pyridyl)-4H-1,3-benzothiazine-4-one] registered a melting point of 207.6 to 207.9 °C. Regarding `N#Cc1ccnc(-c2nc(=O)c3ccccc3s2)c1` [Example 143, 2-(4-Cyano-2-pyridyl)-4H-1,3-benzothiazine-4-one], the melting point fell in the range of 283.4 to 283.6 °C. For `CCN(CC)C(=O)c1ccc(-c2nc(=O)c3ccccc3s2)nc1` [Example 144, N,N-Diethyl-6-(4-oxo-4H-1,3-benzothiazin-2-yl)nicotinamide] the value was 193.2 to 193.3 °C; for `CC(=O)c1ccc(-c2nc(=O)c3ccccc3s2)nc1` [Example 145, 2-(5-Acetyl-2-pyridyl)-4H-1,3-benzothiazine-4-one], 276.3 to 276.7 °C. With `CC(C)(C)OC(=O)/C=C/c1cccc(-c2nc(=O)c3ccccc3s2)n1` [Example 147, tert-Butyl (E)-3-[6-(4-oxo-4H-1,3-benzothiazin-2-yl)-2-pyridyl]-2-propenoate] the figure was 175.5 to 177.6 °C; with `O=C(O)/C=C/c1cccc(-c2nc(=O)c3ccccc3s2)n1` [Example 148, (E)-3-[6-(4-oxo-4H-1,3-benzothiazin-2-yl)-2-pyridyl]-2-prop enoic acid], 115.6 to 115.7 °C. For `CC[S+]([O-])c1cccc(-c2nc(=O)c3ccccc3s2)n1` (centres unmarked) [Example 149, 2-[6-(Ethylsulfinyl)-2-pyridyl]-4H-1,3-benzothiazine-4-one] the value was 181.5 to 182.1 °C; for `CCS(=O)(=O)c1cccc(-c2nc(=O)c3ccccc3s2)n1` [Example 150, 2-[6-(Ethylsulfonyl)-2-pyridyl]-4H-1,3-benzothiazine-4-one], 201.5 to 203 °C. The compound `CC(C)S(=O)(=O)c1cccc(-c2nc(=O)c3ccccc3s2)n1` [Example 152, 2-[6-(Isopropylsulfonyl)-2-pyridyl]-4H-1,3-benzothiazine-4-one] had a melting point of 205 to 206 °C.

As to `CC(C)(C)[S+]([O-])c1cccc(-c2nc(=O)c3ccccc3s2)n1` (centres unmarked) [Example 153, 2-[6-(tert-Butylsulfinyl)-2-pyridyl]-4H-1,3-benzothiazine-4-one], the melting point is 180.5 °C (dec.). For `CC(C)(C)S(=O)(=O)c1cccc(-c2nc(=O)c3ccccc3s2)n1` [Example 154, 2-[6-(tert-Butylsulfonyl)-2-pyridyl]-4H-1,3-benzothiazine-4-one] the value was 233.6 to 234.7 °C.

On to `CCCCC[S+]([O-])c1cccc(-c2nc(=O)c3ccccc3s2)n1` (centres unmarked) [Example 155, 2-[6(n-Pentylsulfinyl)-2-pyridyl]-4H-1,3-benzothiazine-4-one], for which the melting point lay within 146 to 147 °C. The compound `CCCCCS(=O)(=O)c1cccc(-c2nc(=O)c3ccccc3s2)n1` [Example 156, 2-[6-(n-Pentylsulfonyl)-2-pyridyl]-4H-1,3-benzothiazine-4-one] displayed a melting point of 160 to 161 °C. For `CC(C)CC[S+]([O-])c1cccc(-c2nc(=O)c3ccccc3s2)n1` (centres unmarked) [Example 157, 2-(6-Isoamylsulfinyl-2-pyridyl)-4H-1,3-benzothiazine-4-one] the value was 59.5 to 61 °C; for `CC(C)CCS(=O)(=O)c1cccc(-c2nc(=O)c3ccccc3s2)n1` [Example 158, 2-(6-Isoamylsulfonyl-2-pyridyl)-4H-1,3-benzothiazine-4-one], 145.5 to 147 °C. For `O=c1nc(-c2cccc(SCc3ccccc3)n2)sc2ccccc12` [Example 159, 2-(6-Benzylthio-2-pyridyl)-4H-1,3-benzothiazine-4-one] the value was 227 to 228 °C; for `O=c1nc(-c2cccc([S+]([O-])Cc3ccccc3)n2)sc2ccccc12` (centres unmarked) [Example 160, 2-(6-Benzylsulfinyl-2-pyridyl)-4H-1,3-benzothiazine-4-one], 208.5 to 210 °C. The compound `O=c1nc(-c2cccc(S(=O)(=O)Cc3ccccc3)n2)sc2ccccc12` [Example 161, 2-[6-(Benzylsulfonyl)-2-pyridyl]-4H-1,3-benzothiazine-4-one] registered a melting point of 217 to 218 °C. With `O=c1nc(-c2cccc([S+]([O-])CCc3ccccc3)n2)sc2ccccc12` (centres unmarked) [Example 162, 2-[6-(2-Phenylethylsulfinyl)-2-pyridyl]-4H-1,3-benzothiazine-4-one] the figure was 164.5 to 165.5 °C. With `O=c1nc(-c2cccc(S(=O)(=O)CCc3ccccc3)n2)sc2ccccc12` [Example 163, 2-[6-(2-Phenylethyl)sulfonyl-2-pyridyl]-4H-1,3-benzothiazine-4-one] the figure was 161.5 to 163.5 °C; with `O=c1nc(-c2cccc(SCCCc3ccccc3)n2)sc2ccccc12` [Example 164, 2-[6-(3-Phenylpropylthio)-2-pyridyl]-4H-1,3-benzothiazine-4-one], 192.5 to 194 °C. `O=c1nc(-c2cccc([S+]([O-])CCCc3ccccc3)n2)sc2ccccc12` (centres unmarked) [Example 165, 2-[6-[(3-Phenylpropyl)sulfinyl]-2-pyridyl]-4H-1,3-benzothiazine-4-one] registered a melting point of 164.5 to 165.5 °C. Consider `O=c1nc(-c2cccc(S(=O)(=O)CCCc3ccccc3)n2)sc2ccccc12` [Example 166, 2-[6-[(3-Phenylpropyl)sulfonyl]-2-pyridyl]-4H-1,3-benzothiazine-4-one], for which the melting point was in the range of 149.5 to 151 °C.

The compound `CSCc1cccc(-c2nc(=O)c3ccccc3s2)n1` [Example 167, 2-(6-Methylthiomethyl-2-pyridyl)-4H-1,3-benzothiazine-4-one] had a melting point of 151.5 to 153 °C. For `C[S+]([O-])Cc1cccc(-c2nc(=O)c3ccccc3s2)n1` (centres unmarked) [Example 168, 2-(6-Methylsulfinylmethyl-2-pyridyl)-4H-1,3-benzothiazine-4-one], the melting point lay within 184.5 to 185.5 °C.

As to `CS(=O)(=O)Cc1cccc(-c2nc(=O)c3ccccc3s2)n1` [Example 169, 2-(6-Methylsulfonylmethyl-2-pyridyl)-4H-1,3-benzothiazine-4-one], the melting point was in the range of 230.5 to 231.5 °C. In the case of `O=c1nc(-c2cccc(CN3CCOCC3)n2)sc2ccccc12` [Example 170, 2-[6-(4-Morpholinomethyl)-2-pyridyl]-4H-1,3-benzothiazine-4-one], the melting point is 191.8 °C (dec.).

In turn, `CSc1ccc(-c2nc(=O)c3ccccc3s2)cn1` [Example 171, 2-[6-(Methylthio)-3-pyridyl]-4H-1,3-benzothiazine-4-one] came in with a melting point of 167.9 to 169.9 °C. In turn, `O=c1nc(-c2c[nH]c3ccccc23)sc2ccccc12` [Example 172, 2-(1H-Indol-3-yl)-4H-1,3-benzothiazine-4-one] registered a melting point of 276.5 to 277 °C. With `COc1ccc2c(=O)nc(-c3cccc(CCC(=O)OC(C)(C)C)n3)sc2c1` [Example 173, tert-Butyl 3-[6-(7-methoxy-4-oxo-4H-1,3-benzothiazin-2-yl)-2-pyridyl]propanoate] the figure was 134.5 to 135.4 °C. `COc1ccc2c(=O)nc(-c3cccc(CCC(=O)O)n3)sc2c1` [Example 174, 3-[6-(7-Methoxy-4-oxo-4H-1,3-benzothiazin-2-yl)-2-pyridyl]propionic acid] displayed a melting point of 234.2 to 235.2 °C. Compound `Cc1ccc2c(=O)nc(-c3cccc(CCC(=O)OC(C)(C)C)n3)sc2c1` [Example 175, tert-Butyl 3-[6-(7-methyl-4-oxo-4H-1,3-benzothiazin-2-yl)-2-pyridyl]propanoate] displayed a melting point of 134.8 to 134.9 °C. Consider `Cc1ccc2c(=O)nc(-c3cccc(CCC(=O)O)n3)sc2c1` [Example 176, 3-[6-(7-Methyl-4-oxo-4H-1,3-benzothiazin-2-yl)-2-pyridyl]propionic acid], for which the melting point lay within 221.9 to 222.5 °C. With `CC(C)(C)OC(=O)CCc1cccc(-c2nc(=O)c3ccc(C(F)(F)F)cc3s2)n1` [Example 177, tert-Butyl 3-[6-(4-oxo-7-trifluoromethyl-4H-1,3-benzothiazin-2-yl)-2-pyridyl]propanoate] the figure was 148.5 to 149.4 °C.

Compound `O=C(O)CCc1cccc(-c2nc(=O)c3ccc(C(F)(F)F)cc3s2)n1` [Example 178, 3-[6-(4-Oxo-7-trifluoromethyl-4H-1,3-benzothiazin-2-yl)-2-pyridyl]propionic acid] came in with a melting point of 192.9 to 193.1 °C.
